# According to ChEMBL document CHEMBL1201862, “PubChem BioAssay data set” (2004):
# Active and inactive are the calls of the source.
# Legend:
# [1] = target: Peroxisome proliferator-activated receptor gamma/Nuclear receptor coactivator 1 (Homo sapiens, UniProt P37231); format: functional;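 also: agonist potency as compounds enhance coactivator SRC-1 recruitment to PPARgamma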
# [2] = target: Peroxisome proliferator-activated receptor gamma/Nuclear receptor coactivator 2 (Homo sapiens, UniProt P37231); format: functional;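 also: agonist potency for raising coactivator recruitment to the receptor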
# [3] = target: Peroxisome proliferator-activated receptor gamma/Nuclear receptor coactivator 3 (Homo sapiens, UniProt P37231); format: functional;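 also: agonist potency for raising coactivator recruitment to the receptor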
# [4] = target: T1, Oxysterols receptor LXR-beta (Homo sapiens, UniProt P55055); test: LXR agonists, Gal4 luciferase reporter, dose response, counter-screen for ssDAF-12 agonist project, cell-based, luminescence, HEK293, S. stercoralis campaign (AID 720737); format: functional; details: read-out: IC50 (the source's name)
# T1 sequence (P55055 whole entry): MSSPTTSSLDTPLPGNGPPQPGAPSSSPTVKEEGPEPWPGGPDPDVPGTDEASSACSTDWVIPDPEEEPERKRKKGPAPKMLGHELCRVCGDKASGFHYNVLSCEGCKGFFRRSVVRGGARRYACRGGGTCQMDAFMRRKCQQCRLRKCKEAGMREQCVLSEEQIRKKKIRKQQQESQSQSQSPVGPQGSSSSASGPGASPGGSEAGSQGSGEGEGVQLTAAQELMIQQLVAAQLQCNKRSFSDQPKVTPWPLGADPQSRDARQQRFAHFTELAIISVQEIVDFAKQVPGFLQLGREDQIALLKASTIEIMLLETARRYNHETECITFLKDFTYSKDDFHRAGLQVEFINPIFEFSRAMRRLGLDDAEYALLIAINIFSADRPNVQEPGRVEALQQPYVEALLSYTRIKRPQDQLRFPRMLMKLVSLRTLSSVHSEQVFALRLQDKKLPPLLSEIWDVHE
# [5] = Luminescence-based cell-based high throughput dose response assay to identify activators of the DAF-12 from the parasite S. stercoralis (ssDAF-12).; format: functional
# [6] = Luminescence Cell-Based Dose Confirmation HTS to Identify Inhibitors of Polyadenylation.; format: functional
# [7] = target: T2, Lytic switch protein BZLF1 (Epstein-Barr virus (strain B95-8) (HHV-4) (Human herpesvirus 4), UniProt P03206); test: EBV ZTA inhibitors, dose response, counter-screen for EBNA-1 inhibitor project, biochemical, fluorescence polarization, Epstein-Barr virus, 1536-well (AID 2377); parameters: species or system human gammaherpesvirus 4;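 also: fluorescence polarization of Cy5-labelled ZRE DNA probe bound by purified Zta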
# T2 sequence (P03206 whole entry): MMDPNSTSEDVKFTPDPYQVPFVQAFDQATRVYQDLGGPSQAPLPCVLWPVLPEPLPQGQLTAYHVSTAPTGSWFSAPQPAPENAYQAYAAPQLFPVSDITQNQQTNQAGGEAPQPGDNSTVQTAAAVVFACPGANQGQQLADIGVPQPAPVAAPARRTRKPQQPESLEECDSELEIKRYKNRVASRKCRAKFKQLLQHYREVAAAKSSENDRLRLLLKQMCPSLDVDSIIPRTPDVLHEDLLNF
# [8] = target: T3, Epstein-Barr nuclear antigen 1 (Epstein-Barr virus (strain B95-8) (HHV-4) (Human herpesvirus 4), UniProt P03211); test: EBNA-1 inhibitors, dose response, biochemical, fluorescence polarization, 1536-well (AID 2381); parameters: species or system human gammaherpesvirus 4;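 also: fluorescence polarization of a Cy5 DNA probe bound by EBNA-1 protein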
# T3 sequence (P03211 whole entry): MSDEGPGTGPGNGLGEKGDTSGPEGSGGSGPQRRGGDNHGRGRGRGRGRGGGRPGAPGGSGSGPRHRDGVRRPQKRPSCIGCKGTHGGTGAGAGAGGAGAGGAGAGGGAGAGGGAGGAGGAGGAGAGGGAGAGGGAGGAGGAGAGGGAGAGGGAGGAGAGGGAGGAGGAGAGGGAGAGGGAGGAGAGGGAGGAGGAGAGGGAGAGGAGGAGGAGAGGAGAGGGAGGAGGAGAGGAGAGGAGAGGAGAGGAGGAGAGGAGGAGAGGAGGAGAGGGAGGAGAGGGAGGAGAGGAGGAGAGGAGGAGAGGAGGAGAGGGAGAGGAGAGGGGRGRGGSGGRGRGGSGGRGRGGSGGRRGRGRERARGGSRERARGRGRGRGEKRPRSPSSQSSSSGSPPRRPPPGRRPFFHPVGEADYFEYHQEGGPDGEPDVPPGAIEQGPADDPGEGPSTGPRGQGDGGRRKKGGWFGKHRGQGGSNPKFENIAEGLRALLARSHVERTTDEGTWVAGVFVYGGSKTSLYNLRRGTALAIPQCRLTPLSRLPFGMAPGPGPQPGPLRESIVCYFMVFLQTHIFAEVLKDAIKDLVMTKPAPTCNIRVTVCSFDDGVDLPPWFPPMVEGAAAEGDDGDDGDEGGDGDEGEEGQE
# [9] = Luminescence Cell-Based Dose Confirmation HTS to Identify Inhibitors of Platelet Dense Granule Release. [Related pubchem assays: 1663 (Primary HTS), 1678 (Summary of Project)]; format: functional
# [10] = cells
# [11] = target: T1, Oxysterols receptor LXR-beta; format: functional, cell-based
# [12] = target: T4, Luciferin 4-monooxygenase (Photinus pyralis, UniProt P08659); test: firefly luciferase enzyme inhibitors, dose response, biochemical, luminescence (AID 1891)
# [13] = system: HT-1080; test: cytotoxicity in HT1080 fibrosarcoma cells, cell-based, fluorescence readout (AID 620); format: functional; details: Homo sapiens
# [14] = target: T4, Luciferin 4-monooxygenase; test: Counter Screen for Luciferase-based Assay Positives. [Related pubchem assays: 620, 618, 411 ]
# [15] = microbe, parasite or virus in culture; format: functional; details: Mycobacterium tuberculosis
# [16] = ADAM10 inhibitors, peptide cleavage, dose response, biochemical, QFRET (AID 743254);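 also: ADAM10 enzyme with the DM2 quenched FRET peptide as substrate; EDANS fluorescence gain as the protease cuts the substrate; inhibitor potency against ADAM10 proteolytic activity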
# [17] = target: Disintegrin and metalloproteinase domain-containing protein 17 (Homo sapiens, UniProt P78536); test: ADAM17 protease inhibitors, dose response, counter-screen for ADAM10 exosite inhibitor project, biochemical, quenched FRET substrate (AID 743253)
# [18] = system: BJ; test: cytotoxicity toward BJ-TERT fibroblasts, dose response, cell-based, RAS-independent, luminescence (AID 1933); format: functional; details: Homo sapiens
# [19] = system: BJ; test: cells; format: functional, cell-based; details: Homo sapiens
# [20] = cytotoxicity toward DRD oncogenic fibroblasts, dose response, cell-based, non-viral oncogenic, luminescence (AID 1934); format: functional; details: Homo sapiens
# [21] = system: BJ; test: cytotoxicity toward BJ-TERT-LT-ST fibroblasts, dose response, cell-based, RAS-independent, luminescence (AID 1935); format: functional; details: Homo sapiens;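 also: BJ fibroblasts immortalized with TERT plus LT and ST oncogenes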
# T4 sequence (P08659 whole entry): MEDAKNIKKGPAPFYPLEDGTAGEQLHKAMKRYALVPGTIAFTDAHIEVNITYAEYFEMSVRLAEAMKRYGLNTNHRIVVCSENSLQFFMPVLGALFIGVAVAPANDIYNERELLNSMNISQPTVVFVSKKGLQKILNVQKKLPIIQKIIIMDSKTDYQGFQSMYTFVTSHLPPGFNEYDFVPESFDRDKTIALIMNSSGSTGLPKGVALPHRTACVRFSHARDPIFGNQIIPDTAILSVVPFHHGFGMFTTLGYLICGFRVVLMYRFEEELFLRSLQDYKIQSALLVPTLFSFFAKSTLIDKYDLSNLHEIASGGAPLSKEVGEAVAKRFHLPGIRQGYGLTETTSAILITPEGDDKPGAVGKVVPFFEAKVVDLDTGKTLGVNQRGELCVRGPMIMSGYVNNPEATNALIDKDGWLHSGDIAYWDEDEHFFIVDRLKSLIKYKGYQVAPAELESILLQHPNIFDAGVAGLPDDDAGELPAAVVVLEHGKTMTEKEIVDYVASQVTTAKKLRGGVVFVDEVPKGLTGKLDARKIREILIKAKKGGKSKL
# Sequence of Peroxisome proliferator-activated receptor gamma/Nuclear receptor coactivator 1 (P37231 whole entry): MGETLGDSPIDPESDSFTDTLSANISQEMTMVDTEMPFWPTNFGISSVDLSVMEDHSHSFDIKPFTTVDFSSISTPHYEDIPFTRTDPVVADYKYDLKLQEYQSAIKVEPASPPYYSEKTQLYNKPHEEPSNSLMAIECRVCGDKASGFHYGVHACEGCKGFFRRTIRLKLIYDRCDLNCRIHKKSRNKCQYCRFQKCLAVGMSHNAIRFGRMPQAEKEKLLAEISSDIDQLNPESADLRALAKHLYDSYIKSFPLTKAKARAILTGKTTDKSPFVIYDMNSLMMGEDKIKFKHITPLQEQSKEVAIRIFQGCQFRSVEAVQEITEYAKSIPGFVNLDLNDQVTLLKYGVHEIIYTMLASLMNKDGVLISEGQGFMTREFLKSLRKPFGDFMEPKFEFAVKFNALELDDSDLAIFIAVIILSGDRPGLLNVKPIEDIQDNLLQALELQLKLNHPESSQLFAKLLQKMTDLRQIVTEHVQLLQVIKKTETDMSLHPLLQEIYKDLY
# Sequence of Peroxisome proliferator-activated receptor gamma/Nuclear receptor coactivator 1 (Q15788 whole entry, further chain): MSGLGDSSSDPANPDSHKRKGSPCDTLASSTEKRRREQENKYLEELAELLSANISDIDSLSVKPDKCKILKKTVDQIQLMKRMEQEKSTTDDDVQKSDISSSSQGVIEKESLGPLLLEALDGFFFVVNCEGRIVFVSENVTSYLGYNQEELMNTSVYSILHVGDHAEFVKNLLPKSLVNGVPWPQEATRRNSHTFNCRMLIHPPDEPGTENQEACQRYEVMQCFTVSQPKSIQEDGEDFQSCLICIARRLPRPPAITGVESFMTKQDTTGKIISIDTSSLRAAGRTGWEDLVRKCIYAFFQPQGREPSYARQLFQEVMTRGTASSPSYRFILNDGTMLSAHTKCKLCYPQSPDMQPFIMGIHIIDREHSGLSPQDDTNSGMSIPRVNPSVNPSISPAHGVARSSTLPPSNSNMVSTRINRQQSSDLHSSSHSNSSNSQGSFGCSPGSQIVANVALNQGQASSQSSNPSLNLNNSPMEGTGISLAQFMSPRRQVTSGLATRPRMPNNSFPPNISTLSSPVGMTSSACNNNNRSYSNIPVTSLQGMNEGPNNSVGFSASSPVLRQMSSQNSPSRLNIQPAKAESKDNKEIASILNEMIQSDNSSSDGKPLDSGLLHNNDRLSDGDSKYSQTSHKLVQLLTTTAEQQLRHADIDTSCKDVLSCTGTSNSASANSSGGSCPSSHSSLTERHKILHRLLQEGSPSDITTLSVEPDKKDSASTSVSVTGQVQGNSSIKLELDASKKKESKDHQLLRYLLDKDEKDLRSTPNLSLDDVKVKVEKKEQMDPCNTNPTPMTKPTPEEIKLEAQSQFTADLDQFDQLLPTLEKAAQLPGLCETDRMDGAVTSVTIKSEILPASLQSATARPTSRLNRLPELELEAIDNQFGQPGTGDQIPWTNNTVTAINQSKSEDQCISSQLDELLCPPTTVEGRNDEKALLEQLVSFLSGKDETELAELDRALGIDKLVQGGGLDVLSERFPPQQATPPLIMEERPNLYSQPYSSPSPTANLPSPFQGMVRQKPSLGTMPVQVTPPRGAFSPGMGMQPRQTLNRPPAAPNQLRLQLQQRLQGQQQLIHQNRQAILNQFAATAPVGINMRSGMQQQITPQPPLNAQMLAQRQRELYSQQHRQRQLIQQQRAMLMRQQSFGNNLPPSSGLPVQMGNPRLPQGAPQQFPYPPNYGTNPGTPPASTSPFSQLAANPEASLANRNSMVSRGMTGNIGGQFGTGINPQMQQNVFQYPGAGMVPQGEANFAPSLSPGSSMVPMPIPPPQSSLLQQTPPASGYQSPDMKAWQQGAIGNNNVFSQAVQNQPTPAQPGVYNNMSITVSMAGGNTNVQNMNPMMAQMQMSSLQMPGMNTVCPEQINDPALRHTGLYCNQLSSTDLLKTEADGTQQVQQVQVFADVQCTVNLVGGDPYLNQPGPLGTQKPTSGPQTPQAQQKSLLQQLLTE
# Sequence of Peroxisome proliferator-activated receptor gamma/Nuclear receptor coactivator 3 (P37231 whole entry, the tested form may be a part): as the sequence (P37231 whole entry) above
# Sequence of Peroxisome proliferator-activated receptor gamma/Nuclear receptor coactivator 3 (Q9Y6Q9 whole entry, further chain, the tested form may be a part): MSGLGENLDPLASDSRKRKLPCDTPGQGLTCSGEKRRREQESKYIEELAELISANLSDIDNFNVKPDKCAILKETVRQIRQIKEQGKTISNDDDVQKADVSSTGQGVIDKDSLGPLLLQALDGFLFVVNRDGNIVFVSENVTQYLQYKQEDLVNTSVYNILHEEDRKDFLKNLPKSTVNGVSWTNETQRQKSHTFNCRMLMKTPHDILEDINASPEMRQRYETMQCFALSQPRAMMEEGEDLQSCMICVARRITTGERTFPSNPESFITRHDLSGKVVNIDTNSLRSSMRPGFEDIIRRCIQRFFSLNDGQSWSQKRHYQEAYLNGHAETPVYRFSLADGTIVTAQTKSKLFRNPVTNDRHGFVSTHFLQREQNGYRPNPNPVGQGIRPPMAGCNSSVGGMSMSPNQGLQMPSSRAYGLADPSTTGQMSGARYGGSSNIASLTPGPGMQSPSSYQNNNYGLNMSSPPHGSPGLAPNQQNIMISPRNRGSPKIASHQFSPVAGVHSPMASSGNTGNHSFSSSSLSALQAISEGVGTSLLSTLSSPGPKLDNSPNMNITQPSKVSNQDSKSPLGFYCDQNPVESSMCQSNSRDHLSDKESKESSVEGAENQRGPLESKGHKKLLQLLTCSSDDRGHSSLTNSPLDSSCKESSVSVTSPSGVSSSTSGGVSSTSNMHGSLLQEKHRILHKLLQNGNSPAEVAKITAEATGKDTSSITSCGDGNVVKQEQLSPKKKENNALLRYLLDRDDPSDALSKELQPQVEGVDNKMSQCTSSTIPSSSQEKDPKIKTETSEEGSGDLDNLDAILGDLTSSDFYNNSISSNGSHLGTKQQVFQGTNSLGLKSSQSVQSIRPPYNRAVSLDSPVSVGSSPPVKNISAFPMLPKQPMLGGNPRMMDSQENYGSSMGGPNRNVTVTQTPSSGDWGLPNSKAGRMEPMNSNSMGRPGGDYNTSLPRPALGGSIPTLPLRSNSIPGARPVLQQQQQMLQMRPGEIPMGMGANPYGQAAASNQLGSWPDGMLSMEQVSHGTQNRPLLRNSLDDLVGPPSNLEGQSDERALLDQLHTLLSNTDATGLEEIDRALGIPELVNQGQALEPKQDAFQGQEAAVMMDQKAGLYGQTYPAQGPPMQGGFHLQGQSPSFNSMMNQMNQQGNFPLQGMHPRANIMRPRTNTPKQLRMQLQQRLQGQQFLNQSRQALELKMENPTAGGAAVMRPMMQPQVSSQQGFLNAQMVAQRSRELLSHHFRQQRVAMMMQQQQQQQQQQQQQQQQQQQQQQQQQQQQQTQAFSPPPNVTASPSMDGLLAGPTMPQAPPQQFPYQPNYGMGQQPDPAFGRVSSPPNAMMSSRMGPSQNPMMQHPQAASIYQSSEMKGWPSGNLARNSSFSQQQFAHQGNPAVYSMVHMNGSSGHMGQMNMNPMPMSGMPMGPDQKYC
structure (smiles),measurement,setting,value
COc1ccc(NCCNc2ccc(OC)cc2)cc1,EC50,[1],> 79.4 µM (not active)
same,EC50,[2],> 79.4 µM (not active)
same,EC50,[3],> 79.4 µM (not active)
Clc1ccccc1Cn1nnc(-c2ccccc2)n1,EC50,[4],> 67.5 µM (inactive)
same,IC50,[5],> 67.5 µM (inactive)
O=C(CSc1nc2cccnc2n1Cc1ccccc1)NCc1ccco1,EC50,[1],> 79.4 µM (not active)
same,EC50,[2],> 79.4 µM (not active)
same,EC50,[3],> 79.4 µM (not active)
CC(=O)c1c(COC(=O)c2ccc(Cl)cc2)nc2ccccc2[n+]1[O-],EC50,[6],> 120 µM (not active)
Cc1cccc(N(C(=O)c2snc(C(N)=O)c2N)C(C(=O)NCC2CCCO2)c2ccc(N(C)C)cc2)c1C (configuration not stated),IC50,[7],> 111 µM (not active)
same,IC50,[8],2.73 µM (active)
COc1ccc(C(=O)/C=C/Nc2cc(C)ccn2)cc1,EC50,[9],7.6 µM (active)
same,EC50,[10],> 67.6 µM (inactive)
same,EC50,[11],> 67.6 µM (inactive)
same,EC50,[12],1.69 µM (active)
CCOC(=O)c1s/c(=N\C(=O)c2ccc(Cl)s2)n(C)c1C,EC50,[10],> 67.5 µM (inactive)
same,EC50,[11],> 67.5 µM (inactive)
O/C(=C\C=N\c1cccc(O)c1)c1ccccc1,EC50,[13],> 50 µM (not active)
same,EC50,[10],> 67.6 µM (inactive)
same,EC50,[11],> 67.6 µM (inactive)
same,EC50,[14],1.03 µM (active)
Fc1ccccc1-c1ccc(/C=N/Nc2nc3ccccc3[nH]2)o1,EC50,[4],> 67.5 µM (inactive)
same,IC50,[5],> 67.5 µM (inactive)
O=C(NC(C(=O)N/N=C/c1cccc2ccccc12)c1nnc(O)c2ccccc12)c1ccccc1 (configuration not stated),CC50,[15],> 40 µM (active)
same,IC50,[16],> 69.5 µM (inactive)
same,IC50,[17],> 69.5 µM (inactive)
COc1ccc(-c2nc3ccccc3[nH]2)cc1,EC50,[13],20.3 µM (active)
same,EC50,[18],8.49 µM (active)
same,EC50,[19],19.1 µM (active)
same,EC50,[20],9.35 µM (active)
same,EC50,[21],22.7 µM (active)
same,EC50,[14],11 µM (active)
